For the assay, the system named is CD2F1 mice, ip Colon 26 adenocarcinoma, median survival T/C. Briefly: NCI In Vivo Anticancer Drug Screen. Data for tumor model Colon 26 Adenocarcinoma (intraperitoneal) in CD2F1 (CDF1) mice. Conditions: endpoint: median survival time, higher = longer survival. As to the method:
The antitumor activity of compounds was measured in mice bearing transplantable tumors. Survival or tumor size were measured and the results are expressed as the measurement made in the treated group (T) divided by the measurement made in the vehicle treated control group (C). The tumor model used in this assay is Colon 26 Adenocarcinoma (intraperitoneal) in CD2F1 (CDF1) mice

Setting [1] is: dose: 6.25 mg/kg/injection, schedule: Q04DX003 (ip), vehicle: saline with Tween-80.
The mark [2] stands for this setting: dose: 12.5 mg/kg/injection, schedule: Q04DX003 (ip), vehicle: saline with Tween-80.
Where [3] appears, read: dose: 25.0 mg/kg/injection, schedule: Q04DX003 (ip), vehicle: saline with Tween-80.
[4] abbreviates: dose: 50.0 mg/kg/injection, schedule: Q04DX003 (ip), vehicle: saline with Tween-80.
Where [5] appears, read: dose: 100.0 mg/kg/injection, schedule: Q04DX003 (ip), vehicle: saline with Tween-80.
Where [6] appears, read: dose: 200.0 mg/kg/injection, schedule: Q04DX003 (ip), vehicle: saline with Tween-80.
Setting [7] is: dose: 25.0 mg/kg/injection, schedule: Q04DX003 (ip), vehicle: Klucel (hydroxypropylcellulose) (HPC).
Where [8] appears, read: dose: 50.0 mg/kg/injection, schedule: Q04DX003 (ip), vehicle: Klucel (hydroxypropylcellulose) (HPC).
Setting [9] is: dose: 100.0 mg/kg/injection, schedule: Q04DX003 (ip), vehicle: Klucel (hydroxypropylcellulose) (HPC).
[10] abbreviates: dose: 200.0 mg/kg/injection, schedule: Q04DX003 (ip), vehicle: Klucel (hydroxypropylcellulose) (HPC).
Where [11] appears, read: dose: 400.0 mg/kg/injection, schedule: Q04DX003 (ip), vehicle: Klucel (hydroxypropylcellulose) (HPC).

“And” between values parts separate entries of the source, which are not always exact repeats. Identical values can stand only once. Toxic doses and inconclusive results are not listed.

As to `CN1C(=O)CC2(CCN(CCCC(=O)c3ccc(F)cc3)CC2)C1=O`, the T/C reads like this: (dose: 3.12 mg/kg/injection, schedule: Q04DX003 (ip), vehicle: saline with Tween-80) 96 % of control; under setting [1], 98 % of control; under setting [2], 100 % of control; under setting [3], 100 % of control; under setting [4], 102 % of control.

On to `O=C(N/N=C\c1cc(Br)cc(Br)c1O)N/N=C/c1cc(Br)cc(Br)c1O`, for which the T/C under setting [3] was 118 % of control, the T/C under setting [4] was 102 % of control, the T/C under setting [5] was 102 % of control and the T/C under setting [6] was 123 % of control.

Consider `C/C=C(\C)C(=O)OC1C(C)C2(O)C(C=C(CO)CC3(O)C(=O)C(C)=CC32)C2C(C)(C)C12OC(=O)CCCCCCCCC` (configuration not stated), for which the T/C runs as follows: (dose: 0.03 mg/kg/injection, schedule: Q04DX003 (ip), vehicle: saline + alcohol) 93 % of control; (dose: 0.06 mg/kg/injection, schedule: Q04DX003 (ip), vehicle: saline + alcohol) 86 % of control; (dose: 0.13 mg/kg/injection, schedule: Q04DX003 (ip), vehicle: saline + alcohol) 90 % of control; (dose: 0.25 mg/kg/injection, schedule: Q04DX003 (ip), vehicle: saline + alcohol) 86 % of control.

Turning to `Cc1c[nH]c(=O)[nH]c1=O`, the T/C was 97 % of control (dose: 16.0 mg/kg/injection, schedule: Q04DX002 (ip), vehicle: Klucel (hydroxypropylcellulose) (HPC)); 101 % of control (dose: 32.0 mg/kg/injection, schedule: Q04DX002 (ip), vehicle: Klucel (hydroxypropylcellulose) (HPC)); 101 % of control and 94 % of control and 96 % of control (dose: 64.0 mg/kg/injection, schedule: Q04DX002 (ip), vehicle: Klucel (hydroxypropylcellulose) (HPC)); 101 % of control and 88 % of control and 95 % of control (dose: 128.0 mg/kg/injection, schedule: Q04DX002 (ip), vehicle: Klucel (hydroxypropylcellulose) (HPC)); 110 % of control and 92 % of control and 97 % of control (dose: 256.0 mg/kg/injection, schedule: Q04DX002 (ip), vehicle: Klucel (hydroxypropylcellulose) (HPC)); 91 % of control (dose: 512.0 mg/kg/injection, schedule: Q04DX002 (ip), vehicle: Klucel (hydroxypropylcellulose) (HPC)). The T/C (dose: 1024.0 mg/kg/injection, schedule: Q04DX002 (ip), vehicle: Klucel (hydroxypropylcellulose) (HPC)) was 86 % of control.

Consider `O=C(O)c1c2c(nc3ccccc13)Cc1ccccc1-2`, for which the T/C (dose: 12.5 mg/kg/injection, schedule: Q04DX002 (ip), vehicle: water) was 97 % of control; the T/C (dose: 25.0 mg/kg/injection, schedule: Q04DX002 (ip), vehicle: water) was 113 % of control; the T/C (dose: 100.0 mg/kg/injection, schedule: Q04DX002 (ip), vehicle: water) is 105 % of control.

Regarding `N=C(N)SCc1c2ccccc2c(CSC(=N)N)c2ccccc12`, the T/C runs as follows: (dose: 12.5 mg/kg/injection, schedule: Q04DX003 (ip), vehicle: saline) 241 % of control; (dose: 25.0 mg/kg/injection, schedule: Q04DX003 (ip), vehicle: saline) 186 % of control; (dose: 50.0 mg/kg/injection, schedule: Q04DX003 (ip), vehicle: saline) 248 % of control; (dose: 100.0 mg/kg/injection, schedule: Q04DX003 (ip), vehicle: saline) 216 % of control; (dose: 200.0 mg/kg/injection, schedule: Q04DX003 (ip), vehicle: saline) 197 % of control.

Turning to `C[C@]1(O)CC[C@H]2[C@@H]3CCC4=CC(=O)CC[C@]4(C)[C@@]3(F)[C@@H](O)C[C@@]21C`, the T/C reads like this: under setting [7], 94 % of control; under setting [8], 105 % of control; under setting [9], 108 % of control; under setting [10], 99 % of control; under setting [11], 97 % of control.

Take `CCCCCCCC(=O)[O][Hg][CH2]C1COC([CH2][Hg][O]C(=O)CCCCCCC)CO1` (configuration not stated): the T/C runs as follows: under setting [2], 95 % of control; under setting [3], 90 % of control.

`O=c1oc2cc(N=Cc3ccccc3Cl)ccc2c2ccccc12`: the T/C reads like this: under setting [8], 100 % of control; under setting [9], 97 % of control; under setting [10], 98 % of control; under setting [11], 98 % of control.

For the compound `O=S(=O)(O)O`, the T/C was 100 % of control (dose: 30.0 mg/kg/injection, schedule: Q01DX009 (ip), vehicle: saline with Tween-80); 95 % of control (dose: 44.0 mg/kg/injection, schedule: Q01DX009 (ip), vehicle: saline with Tween-80); 101 % of control (dose: 67.0 mg/kg/injection, schedule: Q01DX009 (ip), vehicle: saline with Tween-80).

For `Cc1c2ccncc2c(C)c2c1[nH]c1ccccc12`, the T/C reads like this: (dose: 12.5 mg/kg/injection, schedule: Q04DX002 (ip), vehicle: Klucel (hydroxypropylcellulose) (HPC)) 158 % of control; (dose: 12.5 mg/kg/injection, schedule: Q04DX002 (ip), vehicle: saline) 122 % of control; (dose: 12.5 mg/kg/injection, schedule: Q04DX003 (ip), vehicle: Klucel (hydroxypropylcellulose) (HPC)) 186 % of control; under setting [2], 112 % of control; (dose: 25.0 mg/kg/injection, schedule: Q04DX002 (ip), vehicle: saline) 156 % of control; under setting [7], 263 % of control. Further, the T/C is 152 % of control under setting [3]; 158 % of control (dose: 50.0 mg/kg/injection, schedule: Q04DX002 (ip), vehicle: Klucel (hydroxypropylcellulose) (HPC)); 242 % of control under setting [8]; 170 % of control (dose: 100.0 mg/kg/injection, schedule: Q04DX002 (ip), vehicle: Klucel (hydroxypropylcellulose) (HPC)); 150 % of control (dose: 100.0 mg/kg/injection, schedule: Q04DX002 (ip), vehicle: saline); 242 % of control under setting [9]. The T/C under setting [5] was 165 % of control; the T/C (dose: 200.0 mg/kg/injection, schedule: Q04DX002 (ip), vehicle: saline) is 156 % of control; the T/C under setting [6] is 214 % of control.

In the case of `COc1ccc2c(c1)CCC(c1ccccc1)=C2c1ccc(OCCN2CCCC2)cc1`, the T/C (dose: 6.25 mg/kg/injection, schedule: Q01DX009 (ip), vehicle: saline) is 115 % of control; the T/C (dose: 12.5 mg/kg/injection, schedule: Q01DX009 (ip), vehicle: saline) is 111 % of control; the T/C (dose: 25.0 mg/kg/injection, schedule: Q01DX009 (ip), vehicle: saline) was 112 % of control.

`NC(C/[N+]([O-])=N/O)C(=O)O` (configuration not stated): the T/C is 99 % of control (dose: 8.78 mg/kg/injection, schedule: Q01DX010 (ip), vehicle: alkali diluted with saline); 100 % of control (dose: 13.2 mg/kg/injection, schedule: Q01DX010 (ip), vehicle: alkali diluted with saline); 96 % of control (dose: 19.8 mg/kg/injection, schedule: Q01DX010 (ip), vehicle: alkali diluted with saline); 113 % of control (dose: 29.6 mg/kg/injection, schedule: Q01DX010 (ip), vehicle: alkali diluted with saline); 104 % of control (dose: 44.4 mg/kg/injection, schedule: Q01DX010 (ip), vehicle: alkali diluted with saline); 95 % of control (dose: 66.7 mg/kg/injection, schedule: Q01DX010 (ip), vehicle: alkali diluted with saline).

Turning to `COC(=O)C(F)C(Br)C(=O)OC` (configuration not stated), the T/C was 102 % of control under setting [1], 102 % of control under setting [2], 111 % of control under setting [3] and 114 % of control under setting [4].

`COc1ccc(CC2C(=O)NC(C)C(=O)N(C)C3Cc4ccc(cc4)Oc4cc(ccc4O)CC(C(=O)NC(C)C(=O)NC(C)C(=O)N2C)N(C)C3=O)cc1` (configuration not stated): the T/C is, setting by setting: (dose: 0.5 mg/kg/injection, schedule: Q04DX003 (ip), vehicle: saline) 97 % of control; (dose: 1.0 mg/kg/injection, schedule: Q04DX003 (ip), vehicle: saline) 98 % of control; (dose: 2.0 mg/kg/injection, schedule: Q04DX003 (ip), vehicle: saline) 87 % of control; (dose: 2.59 mg/kg/injection, schedule: Q04DX003 (ip), vehicle: other) 99 % of control; (dose: 4.32 mg/kg/injection, schedule: Q04DX003 (ip), vehicle: other) 103 % of control; (dose: 7.2 mg/kg/injection, schedule: Q04DX003 (ip), vehicle: other) 112 % of control. Besides, the T/C (dose: 12.0 mg/kg/injection, schedule: Q04DX003 (ip), vehicle: other) is 113 % of control.

Source of the values: PubChem BioAssay AID210 (DTP/NCI, 2004).
